Reference: patent US6743925B1, “Nitroimidazole derivative and diagnostic imaging agent containing the same” (Pola Chemical Industries, Inc., priority 1999, dated 2004)

System: cancer-bearing mice (WHT/Ht albino mice), squamous-cell carcinoma and fibrosarcoma
Test: Radiation intensity of each organ after intravenous injection to cancer-bearing mice
Assay type: in vivo
Method: Compound 4 of Example 4 was intravenously injected to cancer-bearing mice (WHT/Ht albino mice) (3 mice per group). Systemic frozen sections of each mouse were prepared 10, 30, 60, 120, and 150 minutes after intravenous injection, and the radiation intensity of each organ was measured. Squamous-cell carcinoma and fibrosarcoma were employed as cancer sources. When the sections was prepared, blood was collected separately, and the ratio of radiation intensity in each organ to that in blood was obtained.

[1] = 10 min. after intravenous injection
[2] = 30 min. after intravenous injection
[3] = 60 min. after intravenous injection
[4] = 120 min. after intravenous injection
[5] = 150 min. after intravenous injection

O=[N+]([O-])c1nccn1COC(CO)C[18F] (stereo not shown) [Compound 4, 1-[2-fluoro(^18F)-1-(hydroxymethyl)ethoxy]methyl-2-nitroimidazole]
radiation intensity, Blood [1]: 2.222 | radiation intensity, Bone [1]: 1.157 | radiation intensity, Brain [1]: 1.168 | radiation intensity, Fibrosarcoma [1]: 1.584 | radiation intensity, Heart [1]: 1.721 | radiation intensity, Intestine [1]: 1.697 | radiation intensity, Kidney [1]: 7.935 | radiation intensity, Liver [1]: 10.300 | radiation intensity, Lung [1]: 2.151 | radiation intensity, Muscle [1]: 1.576 | radiation intensity, Squamous carcinoma [1]: 2.192 | radiation intensity, Testis [1]: 0.861 | ratio of radiation intensity, Fibrosarcoma/blood [1]: 0.697 | ratio of radiation intensity, Squamous carcinoma/blood [1]: 0.893 | radiation intensity, Blood [2]: 1.068 | radiation intensity, Bone [2]: 0.617 | radiation intensity, Brain [2]: 0.815 | radiation intensity, Fibrosarcoma [2]: 1.319 | radiation intensity, Heart [2]: 0.929 | radiation intensity, Intestine [2]: 0.767 | radiation intensity, Kidney [2]: 5.667 | radiation intensity, Liver [2]: 5.018 | radiation intensity, Lung [2]: 1.347 | radiation intensity, Muscle [2]: 0.742 | radiation intensity, Squamous carcinoma [2]: 1.237 | radiation intensity, Testis [2]: 0.852 | ratio of radiation intensity, Fibrosarcoma/blood [2]: 1.234 | ratio of radiation intensity, Squamous carcinoma/blood [2]: 1.012 | radiation intensity, Blood [3]: 0.379 | radiation intensity, Bone [3]: 0.244 | radiation intensity, Brain [3]: 0.308 | radiation intensity, Fibrosarcoma [3]: 0.619 | radiation intensity, Heart [3]: 0.378 | radiation intensity, Intestine [3]: 0.533 | radiation intensity, Kidney [3]: 1.856 | radiation intensity, Liver [3]: 1.692 | radiation intensity, Lung [3]: 0.596 | radiation intensity, Muscle [3]: 0.314 | radiation intensity, Squamous carcinoma [3]: 0.466 | radiation intensity, Testis [3]: 0.466 | ratio of radiation intensity, Fibrosarcoma/blood [3]: 1.634 | ratio of radiation intensity, Squamous carcinoma/blood [3]: 1.384 | radiation intensity, Blood [4]: 0.117 | radiation intensity, Bone [4]: 0.253 | radiation intensity, Brain [4]: 0.116 | radiation intensity, Fibrosarcoma [4]: 0.421 | radiation intensity, Heart [4]: 0.216 | radiation intensity, Intestine [4]: 0.56 | radiation intensity, Kidney [4]: 0.699 | radiation intensity, Liver [4]: 0.730 | radiation intensity, Lung [4]: 0.353 | radiation intensity, Muscle [4]: 0.139 | radiation intensity, Squamous carcinoma [4]: 0.133 | radiation intensity, Testis [4]: 0.412 | ratio of radiation intensity, Fibrosarcoma/blood [4]: 3.601 | ratio of radiation intensity, Squamous carcinoma/blood [4]: 2.904 | radiation intensity, Blood [5]: 0.096 | radiation intensity, Bone [5]: 0.218 | radiation intensity, Brain [5]: 0.126 | radiation intensity, Fibrosarcoma [5]: 0.351 | radiation intensity, Heart [5]: 0.186 | radiation intensity, Intestine [5]: 0.488 | radiation intensity, Kidney [5]: 0.511 | radiation intensity, Liver [5]: 0.800 | radiation intensity, Lung [5]: 0.331 | radiation intensity, Muscle [5]: 0.159 | radiation intensity, Squamous carcinoma [5]: 0.101 | radiation intensity, Testis [5]: 0.139 | ratio of radiation intensity, Fibrosarcoma/blood [5]: 3.675 | ratio of radiation intensity, Squamous carcinoma/blood [5]: 2.357
